Laboratory results published in US11045486B2, “Therapeutic method and therapeutic agent for atopic dermatitis in animals” (priority 2015, dated 2021).
Entries after “also recorded” stand apart in the source; their conditions may differ.

What was measured:
[1] = system: canine atopic dermatitis; assay: CADLI index (skin lesion score) in dogs with atopic dermatitis before and after drug administration; type: in vivo, dog; settings: for effect of improving clinical symptoms of canine atopic dermatitis: 127 dogs, single agents 30 days each, combination up to 60 days, compared with before administration; for CADLI score, average value and standard error / CADLI score, average value (standard error): 30-days administration; for CADLI score, average value (standard error): all 127 dogs, oral with meals every 12 hours (RXM 5 mg/kg, PTX 25 mg/kg), prior to administration 33.17
Excerpt: The CADLI index used in the present specification is an index representing the skin condition of atopic dermatitis, and the skin condition of the five parts of the body is scored by estimating erythema, scratch, erosion, alopecia, lichenification, hyperpigmentation (Non-Patent Document 14). Therefore, the highest point is 50 points, and closer to 50 points the skin inflammation is becoming more severe. […] This figure decreased to 12.04±1.11 after 30 days of dosing and 6.51±1.51 after 60 days, and it was remarkable for all 127 cases (100%). To be able to obtain remission of symptoms with high probability. […] Target animals: For five years from 2010 to 2015, at Gotofu Animal Hospital (1-1-3, […], Fukuoka City, Fukuoka Prefecture), among dogs diagnosed as atopic dermatitis of dogs by diagnostic criteria announced by Dr. Favrot in 2010 (non patent literature 15), the examinations were conducted for 127 dogs for which the consent and cooperation of treatment were obtained from the family and whose sum of SQK were larger than the sum of SLK of the 5 parts, whose SLK and SQK value were calculated for 5 parts of the neck, the fossa, the back, the forearm, and the lower leg. As content of implementation items, in all 127 cases, roxithromycin was administered as a single agent for 30 days, and pentoxifylline was administered as a single agent for the next 30 days. During the last 60 days, roxithromycin and pentoxifylline were administered in combination. The constituent of the targeted dog type is as shown in (Table 1). The constituent of the gender was 57 males (35 castrated with 35 male), 70 females (35 contraceptives already) (Table 1). Methods: In all 127 cases, 5 mg/kg of roxithromycin alone was orally administered with meals every 12 hours for the first 30 days. For the next 30 days, pentoxifylline alone was orally administered at 25 mg/kg with meals every 12 hours. For the next 60 days, 5 mg/kg of roxithromycin and 25 mg/kg of pentoxifylline were orally administered simultaneously with meals every 12 hours. After that, administration of roxithromycin and pentoxifylline was discontinued and a follow-up study was conducted for 30 days. For all treatment periods, meals were allowed to feed freely without restriction. Also, shampoo was carried out at home once a week. Local corticosteroid therapy was performed at any time as long as there was a strong itching lesion After measurement, roxithromycin (RXM) was administered as a single agent for 30 days. After administration, CADLI index was measured to ascertain the skin condition, and it was judged whether roxithromycin has the ability to improve atopic dermatitis by comparing the change of numerical values before and after medication. Similarly, for pentoxifylline (PTX), it was estimated whether pentoxifylline has the effect of improving canine atopic dermatitis by measuring the CADLI index as an index and comparing the values before and after administration. Finally, for administration of roxithromycin and pentoxifylline in combination, the CADLI index was measured on the 30th and 60th days of administration, respectively, and the effect of the drug was evaluated by comparing the values.

[2] = system: canine atopic dermatitis; settings: 7 out of 37 dogs with canine atopic dermatitis; cited from earlier work
[3] = breed West Highland white terrier

SMILES: CC[C@H]1OC(=O)[C@H](C)[C@@H](O[C@H]2C[C@@](C)(OC)[C@@H](O)[C@H](C)O2)[C@H](C)[C@@H](O[C@@H]2O[C@H](C)C[C@H](N(C)C)[C@H]2O)[C@](C)(O)C[C@@H](C)/C(=N\OCOCCOC)[C@H](C)[C@@H](O)[C@]1(C)O [RXM, Roxithromycin]
- effect of improving clinical symptoms of canine atopic dermatitis [1]: did not seem to have sufficient therapeutic effect to improve atopic dermatitis in dogs; also recorded: no effect of improving canine atopic dermatitis
- CADLI score, average value and standard error ([1]; age 4 years-6 years of age): 32.75 ± 2.82
- CADLI score, average value and standard error ([1]; age 7 years-9 years of age): 33.55 ± 3.54
- CADLI score, average value and standard error ([1]; age 10 years-12 years of age): 35.18 ± 2.89
- CADLI score, average value and standard error ([1]; age Over 13 years of age): 32.32 ± 4.07
- CADLI score, average value and standard error ([1]; age Under 3 years of age): 34.72 ± 4.91
- CADLI score, average value (standard error) [1]: 33.64
- CADLI score, average value (standard error) ([1]; listed as roxithromycin): 33.64±1.51
- CADLI score, average value and standard error ([1]; breed Chihuahua): 31.67 ± 9.18
- CADLI score, average value and standard error ([1]; breed Miniature dachschund): 29.00 ± 4.24
- CADLI score, average value and standard error ([1]; breed Mongrel): 36.57 ± 6.25
- CADLI score, average value and standard error ([1]; breed Others): 36.16 ± 3.50
- CADLI score, average value and standard error ([1]; breed Pug): 35.30 ± 3.63
- CADLI score, average value and standard error ([1]; breed Shiba): 35.60 ± 4.44
- CADLI score, average value and standard error ([1]; breed Shih Tzu): 33.39 ± 2.88
- CADLI score, average value and standard error ([1]; breed Toy Poodle): 37.57 ± 5.51
- CADLI score, average value and standard error ([1]; breed Welsh Corgi): 31.50 ± 6.98
- CADLI score, average value and standard error [1, 3]: 35.00 ± 8.08
- CADLI score, average value and standard error ([1]; breed Yorkshire Terrier): 23.00 ± 8.56
- CADLI score, average value and standard error ([1]; sex Castrated male): 33.23 ± 2.97
- CADLI score, average value and standard error ([1]; sex Female): 32.71 ± 2.96
- CADLI score, average value and standard error ([1]; sex Male): 36.41 ± 3.28
- CADLI score, average value and standard error ([1]; sex Spayed female): 33.23 ± 3.01

SMILES: CC(=O)CCCCn1c(=O)c2c(ncn2C)n(C)c1=O [PTX, Pentoxifylline]
- effect of improving clinical symptoms of canine atopic dermatitis [1]: no therapeutic effect to improve atopic dermatitis in dogs; also recorded: unable to confirm the effect of improving the symptoms of atopic dermatitis in dogs
- CADLI score, average value and standard error ([1]; age 4 years-6 years of age): 32.38 ± 3.01
- CADLI score, average value and standard error ([1]; age 7 years-9 years of age): 32.95 ± 3.47
- CADLI score, average value and standard error ([1]; age 10 years-12 years of age): 34.61 ± 2.84
- CADLI score, average value and standard error ([1]; age Over 13 years of age): 31.68 ± 3.93
- CADLI score, average value and standard error ([1]; age Under 3 years of age): 33.94 ± 4.74
- CADLI score, average value (standard error) [1]: 33.09
- CADLI score, average value (standard error) ([1]; listed as pentoxifylline): 33.09±1.52
- CADLI score, average value and standard error ([1]; breed Chihuahua): 31.00 ± 9.01
- CADLI score, average value and standard error ([1]; breed Miniature dachschund): 28.64 ± 4.11
- CADLI score, average value and standard error ([1]; breed Mongrel): 36.00 ± 6.08
- CADLI score, average value and standard error ([1]; breed Others): 35.26 ± 3.66
- CADLI score, average value and standard error ([1]; breed Pug): 35.60 ± 3.48
- CADLI score, average value and standard error ([1]; breed Shiba): 34.93 ± 4.45
- CADLI score, average value and standard error ([1]; breed Shih Tzu): 32.94 ± 3.09
- CADLI score, average value and standard error ([1]; breed Toy Poodle): 36.86 ± 5.42
- CADLI score, average value and standard error ([1]; breed Welsh Corgi): 31.50 ± 6.11
- CADLI score, average value and standard error [1, 3]: 34.40 ± 7.91
- CADLI score, average value and standard error ([1]; breed Yorkshire Terrier): 22.29 ± 7.94
- CADLI score, average value and standard error ([1]; sex Castrated male): 32.63 ± 2.87
- CADLI score, average value and standard error ([1]; sex Female): 32.43 ± 3.13
- CADLI score, average value and standard error ([1]; sex Male): 35.41 ± 3.40
- CADLI score, average value and standard error ([1]; sex Spayed female): 32.74 ± 2.98
- patients in which single administration of pentoxifylline was effective [2]: 19%
